From ChEMBL document CHEMBL6078687 (J Med Chem, 2024)

Tested on: Influenza A virus
Test: Antiviral activity against oseltamivir-resistant Influenza A virus A/H1N1/pdm09 infected in MDCK cells assessed as inhibition of plaque formation measured after 2 days
Conditions: 48 h

## CCC(CC)O[C@@H]1C=C(C(=O)O)C[C@H](NCc2c(C)cc(OCc3cccc(B(O)O)c3)cc2C)[C@H]1NC(C)=O
  EC50: 150 nM

## CCC(CC)O[C@@H]1C=C(C(=O)O)C[C@H](NCc2ccc(OCc3ccc(B(O)O)cc3)cc2Cl)[C@H]1NC(C)=O
  EC50: 400 nM

## CCC(CC)O[C@@H]1C=C(C(=O)O)C[C@H](NCc2ccc(OCc3cccc(B(O)O)c3)cc2Cl)[C@H]1NC(C)=O
  EC50: 30 nM

## CCC(CC)O[C@@H]1C=C(C(=O)O)C[C@H](NCc2ccc(OCc3ccc(B(O)O)cc3)cc2C)[C@H]1NC(C)=O
  EC50: 40 nM

## CCC(CC)O[C@@H]1C=C(C(=O)O)C[C@H](N)[C@H]1NC(C)=O [OSELTAMIVIR CARBOXYLATE]
  EC50: > 20000 nM

## CCC(CC)O[C@@H]1C=C(C(=O)O)C[C@H](NCc2ccc(OCc3cccc(B(O)O)c3)cc2F)[C@H]1NC(C)=O
  EC50: 170 nM

## CCC(CC)O[C@@H]1C=C(C(=O)O)C[C@H](NCc2ccc(OCc3cccc(B(O)O)c3)cc2C)[C@H]1NC(C)=O
  EC50: 30 nM

## CCC(CC)O[C@@H]1C=C(C(=O)O)C[C@H](NCc2ccc(OCc3ccc(B(O)O)cc3)cc2F)[C@H]1NC(C)=O
  EC50: 580 nM
